From PubChem BioAssay AID1963435 (Molecular Pharmacology Branch, DTP, NCI, 2024)

Tested on: PANC-1 complex spheroid growth, percent test/control
Assay: Anticancer human tumor PANC-1 cell line growth inhibition [Asc];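 note: spheroids exposed to agents for 7 days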;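 for viability, T/C: percent viability relative to DMSO vehicle wells taken as 100%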
Settings: for IC50: curve of first compound; for viability, T/C: stronger effect = lower value
Summary of the method: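 Complex solid-tumor spheroids incorporating human endothelial and mesenchymal stem cells received single agents or combinations over half-log dilution ranges anchored to clinical Cmax.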

[1] = second compound 0.00949 µM, first compound 0.0316 µM
[2] = second compound 0.00949 µM, first compound 0.1 µM
[3] = second compound 0.00949 µM, first compound 0.316 µM
[4] = second compound 0.00949 µM, first compound 1 µM
[5] = second compound 0.03 µM, first compound 0.0316 µM
[6] = second compound 0.03 µM, first compound 0.1 µM
[7] = second compound 0.03 µM, first compound 0.316 µM
[8] = second compound 0.03 µM, first compound 1 µM
[9] = second compound 0.0949 µM, first compound 0.0316 µM
[10] = second compound 0.0949 µM, first compound 0.1 µM
[11] = second compound 0.0949 µM, first compound 0.316 µM
[12] = second compound 0.0949 µM, first compound 1 µM
[13] = second compound 0.3 µM, first compound 0.0316 µM
[14] = second compound 0.3 µM, first compound 0.1 µM
[15] = second compound 0.3 µM, first compound 0.316 µM
[16] = second compound 0.3 µM, first compound 1 µM
[17] = second compound 0.949 µM, first compound 0.0316 µM
[18] = second compound 0.949 µM, first compound 0.1 µM
[19] = second compound 0.949 µM, first compound 0.316 µM
[20] = second compound 0.949 µM, first compound 1 µM
[21] = second compound 3 µM, first compound 0.0316 µM
[22] = second compound 3 µM, first compound 0.1 µM
[23] = second compound 3 µM, first compound 0.316 µM
[24] = second compound 3 µM, first compound 1 µM
[25] = second compound 0.00949 µM, first compound 0.00316 µM
[26] = second compound 0.00949 µM, first compound 0.01 µM
[27] = second compound 0.03 µM, first compound 0.00316 µM
[28] = second compound 0.03 µM, first compound 0.01 µM
[29] = second compound 0.0949 µM, first compound 0.00316 µM
[30] = second compound 0.0949 µM, first compound 0.01 µM
[31] = second compound 0.3 µM, first compound 0.00316 µM
[32] = second compound 0.3 µM, first compound 0.01 µM
[33] = second compound 0.949 µM, first compound 0.00316 µM
[34] = second compound 0.949 µM, first compound 0.01 µM
[35] = second compound 3 µM, first compound 0.00316 µM
[36] = second compound 3 µM, first compound 0.01 µM

Structure (SMILES): C=CC(=O)N1CCN(c2nc(=O)n(-c3c(C)ccnc3C(C)C)c3nc(-c4c(O)cccc4F)c(F)cc23)C(C)C1 (stereo unspecified) + CCN1C(C(=O)NC23CCC(C(=O)O)(CC2)CC3)C(c2cccc(Cl)c2F)C2(C(=O)Nc3cc(Cl)ccc32)C12CCCCC2
- IC50 (second compound 0.00949 µM): > 10000 nM
- IC50 (second compound 0.03 µM): > 10000 nM
- IC50 (second compound 0.0949 µM): > 10000 nM
- IC50 (second compound 0.3 µM): > 10000 nM
- IC50 (second compound 0.949 µM): > 10000 nM
- IC50 (second compound 3 µM): > 10000 nM
- viability, T/C [1]: 98.1%
- viability, T/C [2]: 96.8%
- viability, T/C [3]: 86%
- viability, T/C [4]: 98.8%
- viability, T/C (second compound 0.00949 µM, first compound 3.16 µM): 90.4%
- viability, T/C (second compound 0.00949 µM, first compound 10 µM): 96%
- viability, T/C [5]: 101%
- viability, T/C [6]: 92.5%
- viability, T/C [7]: 100%
- viability, T/C [8]: 103%
- viability, T/C (second compound 0.03 µM, first compound 3.16 µM): 97.8%
- viability, T/C (second compound 0.03 µM, first compound 10 µM): 77.5%
- viability, T/C [9]: 111%
- viability, T/C [10]: 101%
- viability, T/C [11]: 97.5%
- viability, T/C [12]: 94%
- viability, T/C (second compound 0.0949 µM, first compound 3.16 µM): 95.6%
- viability, T/C (second compound 0.0949 µM, first compound 10 µM): 91.2%
- viability, T/C [13]: 109%
- viability, T/C [14]: 95.3%
- viability, T/C [15]: 106%
- viability, T/C [16]: 110%
- viability, T/C (second compound 0.3 µM, first compound 3.16 µM): 93.6%
- viability, T/C (second compound 0.3 µM, first compound 10 µM): 93.2%
- viability, T/C [17]: 116%
- viability, T/C [18]: 107%
- viability, T/C [19]: 96.4%
- viability, T/C [20]: 103%
- viability, T/C (second compound 0.949 µM, first compound 3.16 µM): 94.7%
- viability, T/C (second compound 0.949 µM, first compound 10 µM): 93.1%
- viability, T/C [21]: 120%
- viability, T/C [22]: 115%
- viability, T/C [23]: 114%
- viability, T/C [24]: 121%
- viability, T/C (second compound 3 µM, first compound 3.16 µM): 109%
- viability, T/C (second compound 3 µM, first compound 10 µM): 102%

Structure (SMILES): CNC(C)C(=O)NC1CN(S(=O)(=O)c2cccc(S(=O)(=O)N3CCC4CCC(C(=O)NC(c5ccccc5)c5ccccc5)N4C(=O)C(NC(=O)C(C)NC)C3)c2)CCC2CCC(C(=O)NC(c3ccccc3)c3ccccc3)N2C1=O (stereo unspecified) + CCN1C(C(=O)NC23CCC(C(=O)O)(CC2)CC3)C(c2cccc(Cl)c2F)C2(C(=O)Nc3cc(Cl)ccc32)C12CCCCC2
- IC50 (second compound 0.00949 µM): > 1000 nM
- IC50 (second compound 0.03 µM): > 1000 nM
- IC50 (second compound 0.0949 µM): > 1000 nM
- IC50 (second compound 0.3 µM): > 1000 nM
- IC50 (second compound 0.949 µM): > 1000 nM
- IC50 (second compound 3 µM): > 1000 nM
- viability, T/C [25]: 104%
- viability, T/C [26]: 96.6%
- viability, T/C [1]: 103%
- viability, T/C [2]: 89.4%
- viability, T/C [3]: 97%
- viability, T/C [4]: 86.5%
- viability, T/C [27]: 103%
- viability, T/C [28]: 93.9%
- viability, T/C [5]: 90.9%
- viability, T/C [6]: 93.8%
- viability, T/C [7]: 97.2%
- viability, T/C [8]: 85.4%
- viability, T/C [29]: 90.3%
- viability, T/C [30]: 96.9%
- viability, T/C [9]: 89.4%
- viability, T/C [10]: 91.2%
- viability, T/C [11]: 92.2%
- viability, T/C [12]: 86.8%
- viability, T/C [31]: 114%
- viability, T/C [32]: 94.1%
- viability, T/C [13]: 90.7%
- viability, T/C [14]: 101%
- viability, T/C [15]: 91.3%
- viability, T/C [16]: 90.6%
- viability, T/C [33]: 106%
- viability, T/C [34]: 100%
- viability, T/C [17]: 106%
- viability, T/C [18]: 97.8%
- viability, T/C [19]: 100%
- viability, T/C [20]: 93.2%
- viability, T/C [35]: 113%
- viability, T/C [36]: 111%
- viability, T/C [21]: 108%
- viability, T/C [22]: 103%
- viability, T/C [23]: 109%
- viability, T/C [24]: 89.1%

Structure (SMILES): COc1c(OCCCN2CCOCC2)ccc2c3n(c(=NC(=O)c4cnc(N)nc4)nc12)CCN3 + CCN1C(C(=O)NC23CCC(C(=O)O)(CC2)CC3)C(c2cccc(Cl)c2F)C2(C(=O)Nc3cc(Cl)ccc32)C12CCCCC2
- IC50 (second compound 0.00949 µM): 315 nM
- IC50 (second compound 0.03 µM): 423 nM
- IC50 (second compound 0.0949 µM): 267 nM
- IC50 (second compound 0.3 µM): 306 nM
- IC50 (second compound 0.949 µM): 279 nM
- IC50 (second compound 3 µM): 284 nM
- viability, T/C [25]: 87.6%
- viability, T/C [26]: 96.3%
- viability, T/C [1]: 101%
- viability, T/C [2]: 85.2%
- viability, T/C [3]: 50.2%
- viability, T/C [4]: 30.3%
- viability, T/C [27]: 91.7%
- viability, T/C [28]: 91.1%
- viability, T/C [5]: 97.2%
- viability, T/C [6]: 76.7%
- viability, T/C [7]: 56%
- viability, T/C [8]: 35.8%
- viability, T/C [29]: 94.9%
- viability, T/C [30]: 101%
- viability, T/C [9]: 92.5%
- viability, T/C [10]: 70.5%
- viability, T/C [11]: 47.9%
- viability, T/C [12]: 31.2%
- viability, T/C [31]: 110%
- viability, T/C [32]: 106%
- viability, T/C [13]: 95.2%
- viability, T/C [14]: 77.1%
- viability, T/C [15]: 47.5%
- viability, T/C [16]: 35.8%
- viability, T/C [33]: 108%
- viability, T/C [34]: 96.7%
- viability, T/C [17]: 95.6%
- viability, T/C [18]: 75.3%
- viability, T/C [19]: 45.9%
- viability, T/C [20]: 34.5%
- viability, T/C [35]: 118%
- viability, T/C [36]: 109%
- viability, T/C [21]: 92%
- viability, T/C [22]: 79.3%
- viability, T/C [23]: 42.2%
- viability, T/C [24]: 32.5%
